Reference: US10159640B2, “Prebiotic oral care compositions containing amino acids” (COLGATE-PALMOLIVE COMPANY, priority 2013, dated 2018)

System: beneficial oral bacteria and pathogenic oral bacteria
Test: Biofilm growth, whole panel: prebiotic effect
Assay type: cell-based
Details: threshold value of 1.6
Procedure: Substrates that were able to increase the biofilm mass of at least one of the above beneficial bacteria while not or only minimally increasing the biofilm mass of the pathogenic bacteria are considered to be prebiotic compounds.
The increase in biofilm formation of the tested bacteria in response to selected compounds (Met-Pro, Phe-Glu) was investigated by setting up biofilm growth assays in a nutritionally rich medium (brain heart infusion broth (BHI), Oxoid), over 48 hours. Late exponential growth phase liquid cultures were prepared by transferring the respective bacterium from blood agar plates to BHI and overnight incubation at 37° C. in an anaerobic atmosphere for A. viscosus, V. parvula, F. nucleatum, P. gingivalis, P. intermedia, T. forsythia, A. naeslundii, and C. sputigena, and in a 5% CO2 environment for S. salivarius, S. sanguinis, S. mitis, A. actinomycetemcomitans, S. mutans, and S. gordonii. Overnight cultures were transferred to BHI and adjusted to a concentration of 1×10^7 CFU/ml by measuring the optical density at 600 nm (OD600) (BioRad SmartSpec 3000). For each strain, 200 μl of the bacterial suspension was added to a 96-well plate containing 20 μl of the respective di-peptides. Final concentrations of the di-peptides were set to 5, 10, 20 and 25 μmol/ml. […] Additionally, for each bacterium tested, a background control, to correct for background staining, was added. This background control contained the bacterium tested and 0.03 weight % chlorhexidine, as an antiseptic. Plates were incubated as previously described. After 48 hrs the supernatant was removed from the wells of the plates. The wells were washed twice with 1×100 μL PBS (phosphate buffered saline), fixed for 20 minutes with 96% vol. ethanol (96% vol. solution in water) and the biofilm retained at the bottom of the wells was stained with 1 weight % crystal violet (1 weight % solution in water). The bound dye was dissolved with 5% vol. acetic acid (5% vol. solution in water). Quantification of the stained biofilm was performed by measuring the absorbance at 630 nm using a Multiskan Ascent microplate reader (Thermo Scientific).
The experiment was carried out on three different days (thus providing 3 biological replicas) and each day the experiment was carried out in quadruple (thus providing 4 technical replicas) for each combination of bacterium with dipeptide and for each control. For each day and for each combination, the average (mean) of the values obtained (as detailed above) for the four technical replicas was calculated to provide a single value for each combination on each day. The values shown in Tables 7 to 8, below, are the average (mean) of the three single values obtained for each combination of bacterium with dipeptide.
This value was selected in order to exclude low-stimulating metabolites and avoid false positive results.

Phe-Glu
prebiotic effects (biofilm growth) (5 μmol/ml): exhibited prebiotic effects
prebiotic effects (biofilm growth) (10 μmol/ml): exhibited prebiotic effects

Met-Pro
prebiotic effects (biofilm growth) (10 μmol/ml): exhibited prebiotic effects
prebiotic effects (biofilm growth) (20 μmol/ml): exhibited prebiotic effects
prebiotic effects (biofilm growth) (25 μmol/ml): exhibited prebiotic effects
